ChEMBL document CHEMBL5244223, “l,8-Naphthalimide based DNA intercalators and anticancer agents. A systematic review from 2007 to 2017” (Eur J Med Chem, 2018)
In brackets after ≈: the same amount, converted by molar mass.

Legend:
Pseudomonas aeruginosa [1] = assay: Antibacterial activity against Pseudomonas aeruginosa MTCC 741 assessed as zone of inhibition at 50 ug/ml by well diffusion assay; format: functional; conditions: read-out: IZ
Rhizopus arrhizus = assay: Antifungal activity against Rhizopus oryzae MTCC 262 assessed as zone of inhibition at 100 ug/ml by well diffusion assay; format: functional; conditions: read-out: IZ
[2] = system: Staphylococcus epidermidis; assay: Antibacterial activity against Staphylococcus epidermidis MTCC 435 assessed as zone of inhibition at 50 ug/ml by well diffusion assay; format: functional; conditions: read-out: IZ
Candida albicans = assay: Antifungal activity against Candida albicans MTCC 227 assessed as zone of inhibition at 100 ug/ml by well diffusion assay; format: functional; conditions: read-out: IZ
Escherichia coli [3] = assay: Antibacterial activity against Escherichia coli MTCC 443 assessed as zone of inhibition at 50 ug/ml by well diffusion assay; format: functional; conditions: read-out: IZ
Saccharomyces cerevisiae = assay: Antifungal activity against Saccharomyces cerevisiae MTCC 36 assessed as zone of inhibition at 100 ug/ml by well diffusion assay; format: functional; conditions: read-out: IZ
Staphylococcus aureus [4] = assay: Antibacterial activity against Staphylococcus aureus MTCC 96 assessed as zone of inhibition at 50 ug/ml by well diffusion assay; format: functional; conditions: read-out: IZ
Aspergillus niger = assay: Antifungal activity against Aspergillus niger MTCC 282 assessed as zone of inhibition at 100 ug/ml by well diffusion assay; format: functional; conditions: read-out: IZ
MDA-MB-231 = assay: Antiproliferative activity against human MDA-MB-231 cells assessed as inhibition of cell proliferation incubated for 48 hrs by MTT assay; format: functional, cell-based; conditions: MDA-MB-231, 48 h
K562 = assay: Antiproliferative activity against human K562 cells assessed as inhibition of cell proliferation incubated for 48 hrs by MTT assay; format: functional, cell-based; conditions: K562, 48 h
HepG2 = assay: Antiproliferative activity against human HepG2 cells assessed as inhibition of cell proliferation incubated for 48 hrs by MTT assay; format: functional, cell-based; conditions: HepG2, 48 h
[5] = Antiproliferative activity against human QSG7701 cells assessed as inhibition of cell proliferation incubated for 48 hrs by MTT assay; format: toxicity, cell-based
HCT-116 = assay: Antiproliferative activity against human HCT-116 cells assessed as inhibition of cell proliferation incubated for 48 hrs by MTT assay; format: functional, cell-based; conditions: HCT-116, 48 h
SMMC-7721 = assay: Antiproliferative activity against human SMMC-7721 cells assessed as inhibition of cell proliferation incubated for 48 hrs by MTT assay; format: functional, cell-based; conditions: SMMC-7721, 48 h
Calf thymus DNA = assay: Binding affinity to calf thymus DNA assessed as DNA intercalation by measuring change in melting temperature by thermal denaturation assay; format: nucleic-acid assay; conditions: Bos taurus
[6] = system: Staphylococcus epidermidis; assay: Antibacterial activity against Staphylococcus epidermidis MTCC 435 assessed as inhibition of bacterial growth by agar well diffusion assay; format: functional
Pseudomonas aeruginosa [7] = assay: Antibacterial activity against Pseudomonas aeruginosa MTCC 741 assessed as inhibition of bacterial growth by agar well diffusion assay; format: functional
Escherichia coli [8] = assay: Antibacterial activity against Escherichia coli MTCC 443 assessed as inhibition of bacterial growth by agar well diffusion assay; format: functional
Staphylococcus aureus [9] = assay: Antibacterial activity against Staphylococcus aureus MTCC 96 assessed as inhibition of bacterial growth by agar well diffusion assay; format: functional
[10] = Cytotoxicity against human QSG7701 cells assessed as inhibition of cell growth incubated for 48 hrs by MTT assay; format: toxicity, cell-based

Row | SMILES | IC50 (MDA-MB-231) | IC50 (K562) | IC50 (HepG2) | IC50 at 48 h [5] | IC50 (HCT-116) | IC50 (SMMC-7721) | ΔTm (Calf thymus DNA) | MIC [6] | MIC (Pseudomonas aeruginosa [7]) | MIC (Escherichia coli [8]) | MIC (Staphylococcus aureus [9]) | other results
1 | CCOC(=O)C1=C(CC)NC(=O)NC1CN1C(=O)c2cccc3cccc(c23)C1=O (stereo not drawn) | – | – | – | – | – | – | – | – | – | – | – | zone of inhibition at 50 µg/mL (Pseudomonas aeruginosa [1]): 12 mm; zone of inhibition at 100 µg/mL (Rhizopus arrhizus): 12 mm; zone of inhibition at 50 µg/mL [2]: 15 mm; zone of inhibition at 100 µg/mL (Candida albicans): 12 mm; zone of inhibition at 50 µg/mL (Escherichia coli [3]): 12 mm; zone of inhibition at 100 µg/mL (Saccharomyces cerevisiae): 12 mm; zone of inhibition at 50 µg/mL (Staphylococcus aureus [4]): 15 mm; zone of inhibition at 100 µg/mL (Aspergillus niger): 12 mm
2 | CCC1=C(C(=O)Oc2ccccc2)C(CN2C(=O)c3cccc4cccc(c34)C2=O)NC(=S)N1 (stereo not drawn) | – | – | – | – | – | – | – | – | – | – | – | zone of inhibition at 50 µg/mL (Pseudomonas aeruginosa [1]): 12 mm; zone of inhibition at 100 µg/mL (Rhizopus arrhizus): 12 mm; zone of inhibition at 50 µg/mL [2]: 15 mm; zone of inhibition at 100 µg/mL (Candida albicans): 12 mm; zone of inhibition at 50 µg/mL (Escherichia coli [3]): 12 mm; zone of inhibition at 100 µg/mL (Saccharomyces cerevisiae): 12 mm; zone of inhibition at 50 µg/mL (Staphylococcus aureus [4]): 15 mm; zone of inhibition at 100 µg/mL (Aspergillus niger): 12 mm
3 | CN(C)CCNCC(=O)Nc1cc2c3c(cccc3c1)C(=O)N(CCN(C)C)C2=O | 6.42 µM | 6.42 µM | 6.42 µM | 6.42 µM | 6.42 µM | 6.42 µM | – | – | – | – | – | –
4 | CCCCNC(=O)Nc1cc2c3c(cccc3c1)C(=O)N(CCN(C)C)C2=O | > 50 µM | > 50 µM | > 50 µM | > 50 µM | > 50 µM | > 50 µM | – | – | – | – | – | –
5 | O=C1c2cccc3cccc(c23)C(=O)N1c1nc(-c2cc3cc(Cl)ccc3oc2=O)cs1 | – | – | – | – | – | – | 0.1 °C | 18.8 µg/mL (≈ 40.9 µM) | 18.8 µg/mL (≈ 40.9 µM) | 18.8 µg/mL (≈ 40.9 µM) | 18.8 µg/mL (≈ 40.9 µM) | –
6 | O=C1c2ccc3c4c(ccc(c24)C(=O)N1c1nc(-c2cc4cc(Cl)cc(Cl)c4oc2=O)cs1)C(=O)N(c1nc(-c2cc4cc(Cl)cc(Cl)c4oc2=O)cs1)C3=O | – | – | – | – | – | – | 0.1 °C | 18.8 µg/mL (≈ 21.8 µM) | 18.8 µg/mL (≈ 21.8 µM) | 18.8 µg/mL (≈ 21.8 µM) | 18.8 µg/mL (≈ 21.8 µM) | –
7 | O=C1c2cccc3cccc(c23)C(=O)N1c1nc(-c2cc3cc(Br)cc(Br)c3oc2=O)cs1 | – | – | – | – | – | – | 0.1 °C | 18.8 µg/mL (≈ 32.2 µM) | 18.8 µg/mL (≈ 32.2 µM) | 18.8 µg/mL (≈ 32.2 µM) | 18.8 µg/mL (≈ 32.2 µM) | –
8 | CN(C)CCN1C(=O)c2cccc3cc(NC(=O)CNCCCN)cc(c23)C1=O | 6.42 µM | 6.42 µM | 6.42 µM | 6.42 µM | 6.42 µM | 6.42 µM | – | – | – | – | – | –
9 | O=C1c2ccc3c4c(ccc(c24)C(=O)N1c1nc(-c2cc4cc(Br)cc(Br)c4oc2=O)cs1)C(=O)N(c1nc(-c2cc4cc(Br)cc(Br)c4oc2=O)cs1)C3=O | – | – | – | – | – | – | 0.1 °C | 18.8 µg/mL (≈ 18.1 µM) | 18.8 µg/mL (≈ 18.1 µM) | 18.8 µg/mL (≈ 18.1 µM) | 18.8 µg/mL (≈ 18.1 µM) | –
10 | NCCCNCCCCNCCCN1C(=O)c2cccc3cccc(c23)C1=O | – | – | – | – | – | – | – | – | – | – | – | IC50 at 48 h [10]: > 50 µM
11 | CN(C)CCN1C(=O)c2cccc3cc(NC(=O)CNCCCCNCCCCNCCCCN)cc(c23)C1=O | 6.42 µM | 6.42 µM | 6.42 µM | 6.42 µM | 6.42 µM | 6.42 µM | – | – | – | – | – | –
12 | Clc1ccccc1C(c1ccccc1)(c1ccccc1)n1ccnc1 [CLOTRIMAZOLE] | – | – | – | – | – | – | – | – | – | – | – | zone of inhibition at 100 µg/mL (Rhizopus arrhizus): 22 mm; zone of inhibition at 100 µg/mL (Candida albicans): 22 mm; zone of inhibition at 100 µg/mL (Saccharomyces cerevisiae): 22 mm; zone of inhibition at 100 µg/mL (Aspergillus niger): 22 mm
13 | COc1cccc2cc(-c3csc(N4C(=O)c5cccc6cccc(c56)C4=O)n3)c(=O)oc12 | – | – | – | – | – | – | 0.1 °C | 18.8 µg/mL (≈ 41.3 µM) | 18.8 µg/mL (≈ 41.3 µM) | 18.8 µg/mL (≈ 41.3 µM) | 18.8 µg/mL (≈ 41.3 µM) | –
14 | CN(C)CCN1C(=O)c2cccc3cc(NC(=O)NCCCCN)cc(c23)C1=O | > 50 µM | > 50 µM | > 50 µM | > 50 µM | > 50 µM | > 50 µM | – | – | – | – | – | –
15 | CN(C)CCN1C(=O)c2cccc3cc(NC(=O)CNCCCCNCCCN)cc(c23)C1=O | 6.42 µM | 6.42 µM | 6.42 µM | 6.42 µM | 6.42 µM | 6.42 µM | – | – | – | – | – | –
16 | CN(C)CCN1C(=O)c2cccc3cc(NC(=O)NCCCNCCCCN)cc(c23)C1=O | > 50 µM | > 50 µM | > 50 µM | > 50 µM | > 50 µM | > 50 µM | – | – | – | – | – | –
17 | CN(C)CCN1C(=O)c2cccc3cc(NC(=O)NCCCNCCCNCCCCN)cc(c23)C1=O | > 50 µM | > 50 µM | > 50 µM | > 50 µM | > 50 µM | > 50 µM | – | – | – | – | – | –
18 | CN(C)CCN1C(=O)c2cccc3cc(NC(=O)CNCCCNCCCCNCCCN)cc(c23)C1=O | 6.42 µM | 6.42 µM | 6.42 µM | 6.42 µM | 6.42 µM | 6.42 µM | – | – | – | – | – | –
19 | O=C1c2ccc3c4c(ccc(c24)C(=O)N1c1nc(-c2cc4cc(Cl)ccc4oc2=O)cs1)C(=O)N(c1nc(-c2cc4cc(Cl)ccc4oc2=O)cs1)C3=O | – | – | – | – | – | – | 24.3 °C | 18.8 µg/mL (≈ 23.7 µM) | 18.8 µg/mL (≈ 23.7 µM) | 18.8 µg/mL (≈ 23.7 µM) | 18.8 µg/mL (≈ 23.7 µM) | –
20 | CN[C@@H]1[C@H](O[C@H]2[C@H](O[C@H]3[C@H](O)[C@@H](O)[C@H](N=C(N)N)[C@@H](O)[C@@H]3N=C(N)N)O[C@@H](C)[C@]2(O)C=O)O[C@@H](CO)[C@H](O)[C@H]1O [STREPTOMYCIN] | – | – | – | – | – | – | – | – | – | – | – | zone of inhibition at 50 µg/mL (Pseudomonas aeruginosa [1]): 24 mm; zone of inhibition at 50 µg/mL [2]: 23 mm; zone of inhibition at 50 µg/mL (Escherichia coli [3]): 29 mm; zone of inhibition at 50 µg/mL (Staphylococcus aureus [4]): 21 mm
21 | CCCCCCCNC(=O)Nc1cc2c3c(cccc3c1)C(=O)N(CCN(C)C)C2=O | > 50 µM | > 50 µM | > 50 µM | > 50 µM | > 50 µM | > 50 µM | – | – | – | – | – | –
22 | CN(C)CCN1C(=O)c2cccc3cc(NC(=O)NCCCN)cc(c23)C1=O | > 50 µM | > 50 µM | > 50 µM | > 50 µM | > 50 µM | > 50 µM | – | – | – | – | – | –
23 | CN(C)CCNC(=O)Nc1cc2c3c(cccc3c1)C(=O)N(CCN(C)C)C2=O | > 50 µM | 8.62 µM | > 50 µM | > 50 µM | 8.62 µM | 8.62 µM | – | – | – | – | – | –
24 | CN(C)CCN1C(=O)c2cccc3cc(NC(=O)CNCCCNCCCNCCCN)cc(c23)C1=O | 6.42 µM | 6.42 µM | 6.42 µM | 6.42 µM | 6.42 µM | 6.42 µM | – | – | – | – | – | –
25 | O=C1c2cccc3cccc(c23)C(=O)N1c1nc(-c2cc3cc(Br)ccc3oc2=O)cs1 | – | – | – | – | – | – | 0.1 °C | 18.8 µg/mL (≈ 37.3 µM) | 18.8 µg/mL (≈ 37.3 µM) | 18.8 µg/mL (≈ 37.3 µM) | 18.8 µg/mL (≈ 37.3 µM) | –
26 | O=C1c2ccc3c4c(ccc(c24)C(=O)N1c1nc(-c2cc4cc(Br)ccc4oc2=O)cs1)C(=O)N(c1nc(-c2cc4cc(Br)ccc4oc2=O)cs1)C3=O | – | – | – | – | – | – | 0.1 °C | 18.8 µg/mL (≈ 21.3 µM) | 18.8 µg/mL (≈ 21.3 µM) | 18.8 µg/mL (≈ 21.3 µM) | 18.8 µg/mL (≈ 21.3 µM) | –
